Read-outs that look alike come from different tables or passages of the source.
Test system: patients with advanced metastatic cancer
Text: In this phase 1 study, dose escalation was followed by expansion cohorts of once-daily, oral M2698 in continuous 21-day cycles. Primary objectives were to determine the maximum tolerated dose (MTD), dose-limiting toxicities (DLTs), and recommended phase 2 dose (RP2D). Secondary objectives were to assess safety and tolerability, pharmacokinetics (PK, including food effect) and antitumor activity. Pharmacodynamic biomarker assessments were exploratory. Treatment was discontinued if there was disease progression, toxicity or consent withdrawal.
In Part 1, M2698 monotherapy was investigated in a dose escalation with a food effect cohort. In Part 2, M2698 was investigated as monotherapy (expansion cohort) to further characterize safety, tolerability and pharmacokinetics, and assess antitumor activity in PAM + patients without confounding markers (exploratory).
Dose escalation analysis included all patients who experienced a DLT and those who received ≥ 80% of planned M2698 doses in cycle 1 without experiencing a DLT. Safety analysis included all patients who received ≥ 1 dose of M2698. PK analysis included all patients who received ≥ 1 dose of M2698 and had measurable plasma concentrations. Dose proportionality was tested using the power model (linear regression approach on the log -transformed scale).

## NC(=O)c1cccc2c(N[C@H](CN3CCC3)c3ccc(Cl)c(C(F)(F)F)c3)ncnc12 [M2698]
200 mg n=3
  M2698-related TEAE: Delusion: 0
  M2698-related TEAE: Depression: 0
  M2698-related TEAE: Diarrhoea: 0
  M2698-related TEAE: Diarrhoea haemorrhagic: 0
  M2698-related TEAE: Dizziness: 0
  M2698-related TEAE: Dry eye: 0
  M2698-related TEAE: Dry mouth: 0
  M2698-related TEAE: Dysgeusia: 0
  M2698-related TEAE: Dyspepsia: 0
  M2698-related TEAE: Dysphagia: 0
  M2698-related TEAE: Energy increased: 0
  M2698-related TEAE: Erythema: 0
  M2698-related TEAE: Euphoric mood: 0
  M2698-related TEAE: Eye disorders: 0
  M2698-related TEAE: Fatigue: 0
  M2698-related TEAE: Gamma-glutamyltransferase increased: 0
  M2698-related TEAE: Gastrointestinal disorders: 1
  M2698-related TEAE: Gastrooesophageal reflux disease: 0
  M2698-related TEAE: General disorders and administration site conditions: 0
  M2698-related TEAE: Headache: 0
  M2698-related TEAE: Hyperhidrosis: 0
  M2698-related TEAE: Hypokalaemia: 0
  M2698-related TEAE: Hypomagnesaemia: 0
  M2698-related TEAE: Insomnia: 0
  M2698-related TEAE: Investigations: 0
  M2698-related TEAE: Lipase increased: 0
  M2698-related TEAE: Lymphopenia: 0
  M2698-related TEAE: Metabolism and nutrition disorders: 1
  M2698-related TEAE: Mucosal inflammation: 0
  M2698-related TEAE: Nausea: 1
  M2698-related TEAE: Nervous system disorders: 0
  M2698-related TEAE: Nightmare: 0
  M2698-related TEAE: Onychomadesis: 0
  M2698-related TEAE: Paranoia: 0
  M2698-related TEAE: Photosensitivity reaction: 0
  M2698-related TEAE: Posterior reversible encephalopathy syndrome: 0
  M2698-related TEAE: Pruritus generalised: 0
  M2698-related TEAE: Psychiatric disorders: 0
  M2698-related TEAE: Rash: 0
  M2698-related TEAE: Rash maculo-papular: 0
  M2698-related TEAE: Skin and subcutaneous tissue disorders: 0
  M2698-related TEAE: Subjects with at least one event: 1
  M2698-related TEAE: Transaminases increased: 0
  M2698-related TEAE: Tremor: 0
  M2698-related TEAE: Vision blurred: 0
  M2698-related TEAE: Vomiting: 0
  M2698-related TEAE: White blood cell count decreased: 0
240 mg n=17
  M2698-related TEAE: Abnormal dreams: 2
  M2698-related TEAE: Affect lability: 0
  M2698-related TEAE: Alanine aminotransferase increased: 0
  M2698-related TEAE: Amylase increased: 0
  M2698-related TEAE: Anaemia: 0
  M2698-related TEAE: Angina pectoris: 0
  M2698-related TEAE: Anxiety: 0
  M2698-related TEAE: Aphasia: 0
  M2698-related TEAE: Ataxia: 0
  M2698-related TEAE: Blood and lymphatic system disorders: 0
  M2698-related TEAE: Blood creatine phosphokinase increased: 0
  M2698-related TEAE: Blood creatinine increased: 1
  M2698-related TEAE: Cardiac disorders: 0
  M2698-related TEAE: Cognitive disorder: 1
  M2698-related TEAE: Constipation: 0
  M2698-related TEAE: Decreased appetite: 0
  M2698-related TEAE: Delusion: 0
  M2698-related TEAE: Depression: 1
  M2698-related TEAE: Diarrhoea: 2
  M2698-related TEAE: Diarrhoea haemorrhagic: 0
  M2698-related TEAE: Dizziness: 1
  M2698-related TEAE: Dry eye: 0
  M2698-related TEAE: Dry mouth: 0
  M2698-related TEAE: Dysgeusia: 0
  M2698-related TEAE: Dyspepsia: 0
  M2698-related TEAE: Dysphagia: 0
  M2698-related TEAE: Energy increased: 0
  M2698-related TEAE: Erythema: 0
  M2698-related TEAE: Euphoric mood: 0
  M2698-related TEAE: Eye disorders: 0
  M2698-related TEAE: Fatigue: 3
  M2698-related TEAE: Gamma-glutamyltransferase increased: 0
  M2698-related TEAE: Gastrointestinal disorders: 4
  M2698-related TEAE: Gastrooesophageal reflux disease: 1
  M2698-related TEAE: General disorders and administration site conditions: 3
  M2698-related TEAE: Headache: 1
  M2698-related TEAE: Hyperhidrosis: 0
  M2698-related TEAE: Hypokalaemia: 0
  M2698-related TEAE: Hypomagnesaemia: 0
  M2698-related TEAE: Insomnia: 0
  M2698-related TEAE: Investigations: 1
  M2698-related TEAE: Lipase increased: 0
  M2698-related TEAE: Lymphopenia: 0
  M2698-related TEAE: Metabolism and nutrition disorders: 0
  M2698-related TEAE: Mucosal inflammation: 0
  M2698-related TEAE: Nausea: 3
  M2698-related TEAE: Nervous system disorders: 3
  M2698-related TEAE: Nightmare: 0
  M2698-related TEAE: Onychomadesis: 0
  M2698-related TEAE: Paranoia: 0
  M2698-related TEAE: Photosensitivity reaction: 0
  M2698-related TEAE: Posterior reversible encephalopathy syndrome: 0
  M2698-related TEAE: Pruritus generalised: 0
  M2698-related TEAE: Psychiatric disorders: 3
  M2698-related TEAE: Rash: 0
  M2698-related TEAE: Rash maculo-papular: 0
  M2698-related TEAE: Skin and subcutaneous tissue disorders: 0
  M2698-related TEAE: Subjects with at least one event: 9
  M2698-related TEAE: Transaminases increased: 0
  M2698-related TEAE: Tremor: 1
  M2698-related TEAE: Vision blurred: 0
  M2698-related TEAE: Vomiting: 1
  M2698-related TEAE: White blood cell count decreased: 0
320 mg n=12
  M2698-related TEAE: Abnormal dreams: 2
  M2698-related TEAE: Affect lability: 0
  M2698-related TEAE: Alanine aminotransferase increased: 0
  M2698-related TEAE: Amylase increased: 0
  M2698-related TEAE: Anaemia: 1
  M2698-related TEAE: Angina pectoris: 0
  M2698-related TEAE: Anxiety: 1
  M2698-related TEAE: Aphasia: 1
  M2698-related TEAE: Ataxia: 1
  M2698-related TEAE: Blood and lymphatic system disorders: 1
  M2698-related TEAE: Blood creatine phosphokinase increased: 0
  M2698-related TEAE: Blood creatinine increased: 1
  M2698-related TEAE: Cardiac disorders: 0
  M2698-related TEAE: Cognitive disorder: 0
  M2698-related TEAE: Constipation: 2
  M2698-related TEAE: Decreased appetite: 1
  M2698-related TEAE: Delusion: 1
  M2698-related TEAE: Depression: 1
  M2698-related TEAE: Diarrhoea: 4
  M2698-related TEAE: Diarrhoea haemorrhagic: 0
  M2698-related TEAE: Dizziness: 0
  M2698-related TEAE: Dry eye: 0
  M2698-related TEAE: Dry mouth: 0
  M2698-related TEAE: Dysgeusia: 0
  M2698-related TEAE: Dyspepsia: 1
  M2698-related TEAE: Dysphagia: 0
  M2698-related TEAE: Energy increased: 0
  M2698-related TEAE: Erythema: 0
  M2698-related TEAE: Euphoric mood: 0
  M2698-related TEAE: Eye disorders: 0
  M2698-related TEAE: Fatigue: 1
  M2698-related TEAE: Gamma-glutamyltransferase increased: 0
  M2698-related TEAE: Gastrointestinal disorders: 8
  M2698-related TEAE: Gastrooesophageal reflux disease: 0
  M2698-related TEAE: General disorders and administration site conditions: 2
  M2698-related TEAE: Headache: 0
  M2698-related TEAE: Hyperhidrosis: 1
  M2698-related TEAE: Hypokalaemia: 1
  M2698-related TEAE: Hypomagnesaemia: 1
  M2698-related TEAE: Insomnia: 1
  M2698-related TEAE: Investigations: 1
  M2698-related TEAE: Lipase increased: 0
  M2698-related TEAE: Lymphopenia: 0
  M2698-related TEAE: Metabolism and nutrition disorders: 2
  M2698-related TEAE: Mucosal inflammation: 1
  M2698-related TEAE: Nausea: 6
  M2698-related TEAE: Nervous system disorders: 4
  M2698-related TEAE: Nightmare: 0
  M2698-related TEAE: Onychomadesis: 0
  M2698-related TEAE: Paranoia: 1
  M2698-related TEAE: Photosensitivity reaction: 1
  M2698-related TEAE: Posterior reversible encephalopathy syndrome: 0
  M2698-related TEAE: Pruritus generalised: 1
  M2698-related TEAE: Psychiatric disorders: 3
  M2698-related TEAE: Rash: 0
  M2698-related TEAE: Rash maculo-papular: 0
  M2698-related TEAE: Skin and subcutaneous tissue disorders: 3
  M2698-related TEAE: Subjects with at least one event: 9
  M2698-related TEAE: Transaminases increased: 0
  M2698-related TEAE: Tremor: 3
  M2698-related TEAE: Vision blurred: 0
  M2698-related TEAE: Vomiting: 0
  M2698-related TEAE: White blood cell count decreased: 0
380 mg n=4
  M2698-related TEAE: Abnormal dreams: 0
  M2698-related TEAE: Affect lability: 0
  M2698-related TEAE: Alanine aminotransferase increased: 0
  M2698-related TEAE: Amylase increased: 0
  M2698-related TEAE: Anaemia: 0
  M2698-related TEAE: Angina pectoris: 0
  M2698-related TEAE: Anxiety: 0
  M2698-related TEAE: Aphasia: 0
  M2698-related TEAE: Ataxia: 0
  M2698-related TEAE: Blood and lymphatic system disorders: 0
  M2698-related TEAE: Blood creatine phosphokinase increased: 1
  M2698-related TEAE: Blood creatinine increased: 0
  M2698-related TEAE: Cardiac disorders: 0
  M2698-related TEAE: Cognitive disorder: 0
  M2698-related TEAE: Constipation: 0
  M2698-related TEAE: Decreased appetite: 0
  M2698-related TEAE: Delusion: 0
  M2698-related TEAE: Depression: 0
  M2698-related TEAE: Diarrhoea: 0
  M2698-related TEAE: Diarrhoea haemorrhagic: 1
  M2698-related TEAE: Dizziness: 0
  M2698-related TEAE: Dry eye: 0
  M2698-related TEAE: Dry mouth: 0
  M2698-related TEAE: Dysgeusia: 0
  M2698-related TEAE: Dyspepsia: 0
